Target: ROCK2 (Homo sapiens, UniProt O75116)
Assay: ROCK2 assay (Caliper LABCHIP peptide phosphorylation)
Format: biochemical
Settings: 5 μM ATP, 1.5 μM peptide substrate
Description: The effectiveness of compounds of the present invention as ROCK inhibitors can be determined in a 30 μL assay containing 20 mM HEPES, pH 7.5, 20 mM MgCl2, 0.015% Brij-35, 4 mM DTT, 5 μM ATP and 1.5 μM peptide substrate (FITC-AHA-AKRRRLSSLRA-OH) (SEQ ID NO.1). Compounds were dissolved in DMSO so that the final concentration of DMSO was <2%, and the reaction was initiated with Rho kinase variants. After incubation, the reaction was terminated by the addition of EDTA and the phosphorylated and non-phosphorylated peptides separated using a LABCHIP® 3000 Reader (Caliper Life Sciences). […] Compounds were tested in dose-response format, and the inhibition of kinase activity was calculated at each concentration of compound. The inhibition data were fit using a curve-fitting program to determine the IC50; i.e., the concentration of compound required to inhibit 50% of kinase activity.
Representative Examples were tested in the ROCK2 assay described above and found having ROCK2 inhibitory activity. The ranges of the ROCK2 IC50 values are as follows: ROCK2 IC50: ++++ (<3 nM) +++ (3-30 nM) ++ (30-300 nM) + (300-2000 nM)

Sequence of ROCK2 (O75116 whole entry, species assumed): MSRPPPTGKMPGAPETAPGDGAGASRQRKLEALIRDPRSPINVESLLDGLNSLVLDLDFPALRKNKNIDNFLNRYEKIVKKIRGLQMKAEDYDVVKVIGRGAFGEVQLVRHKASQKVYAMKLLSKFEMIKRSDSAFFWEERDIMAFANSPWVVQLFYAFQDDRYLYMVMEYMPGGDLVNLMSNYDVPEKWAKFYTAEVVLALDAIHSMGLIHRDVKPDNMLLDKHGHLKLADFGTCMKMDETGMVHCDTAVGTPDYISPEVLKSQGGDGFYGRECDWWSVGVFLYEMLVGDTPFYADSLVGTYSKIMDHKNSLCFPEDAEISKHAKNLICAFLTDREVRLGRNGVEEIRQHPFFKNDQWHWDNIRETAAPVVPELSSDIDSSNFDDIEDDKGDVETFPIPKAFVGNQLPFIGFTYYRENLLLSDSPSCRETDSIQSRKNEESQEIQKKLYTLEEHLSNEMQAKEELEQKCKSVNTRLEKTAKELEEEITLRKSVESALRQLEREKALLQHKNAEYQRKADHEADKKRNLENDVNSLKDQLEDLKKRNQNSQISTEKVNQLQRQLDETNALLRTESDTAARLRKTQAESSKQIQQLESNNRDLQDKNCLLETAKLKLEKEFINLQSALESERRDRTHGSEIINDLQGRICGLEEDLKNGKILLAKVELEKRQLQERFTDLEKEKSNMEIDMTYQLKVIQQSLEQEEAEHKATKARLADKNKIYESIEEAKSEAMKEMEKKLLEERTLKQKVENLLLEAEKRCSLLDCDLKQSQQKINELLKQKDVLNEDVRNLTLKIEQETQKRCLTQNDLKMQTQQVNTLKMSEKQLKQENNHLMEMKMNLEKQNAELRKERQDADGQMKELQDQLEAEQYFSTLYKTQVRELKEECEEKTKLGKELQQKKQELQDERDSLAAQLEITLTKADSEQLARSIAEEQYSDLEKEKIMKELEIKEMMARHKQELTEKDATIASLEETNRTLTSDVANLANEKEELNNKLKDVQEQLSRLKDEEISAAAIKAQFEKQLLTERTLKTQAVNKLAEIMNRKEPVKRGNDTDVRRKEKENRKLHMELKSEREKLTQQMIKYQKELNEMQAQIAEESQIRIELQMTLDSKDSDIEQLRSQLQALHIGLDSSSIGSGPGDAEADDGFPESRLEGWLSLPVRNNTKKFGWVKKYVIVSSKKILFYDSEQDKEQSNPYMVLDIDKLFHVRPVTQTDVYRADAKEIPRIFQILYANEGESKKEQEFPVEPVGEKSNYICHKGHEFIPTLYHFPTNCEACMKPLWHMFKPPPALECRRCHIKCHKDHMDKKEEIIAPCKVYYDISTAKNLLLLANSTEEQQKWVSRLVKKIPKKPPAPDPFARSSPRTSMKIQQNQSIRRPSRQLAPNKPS

Row | IC50 [nM] | SMILES
1 | 30 to 300 | O=C1N(c2ccc(-c3cn[nH]c3)cc2)CCC12Cc1ccccc1CN2 (centres unmarked) [Example 48, 1′-(4-(1H-pyrazol-4-yl)phenyl)-1,4-dihydro-2H-spiro[isoquinoline-3,3′-pyrrolidin]-2′-one]
2 | < 3 | O=C1N(c2ccc(-c3cn[nH]c3)cc2)CCC12Cc1ccccc1N2 (single isomer, unassigned) [Example 2, 1′-(4-(1H-Pyrazol-4-yl)phenyl)spiro[indoline-2,3′-pyrrolidin]-2′-one]
3 | < 3 | COc1cc(F)c2c(c1)NC1(CCN(c3ccc(-c4cn[nH]c4)cc3)C1=O)C2 (racemic) [Example 38, 1′-(4-(1H-Pyrazol-4-yl)phenyl)-4-fluoro-6-methoxyspiro[indoline-2,3′-pyrrolidin]-2′-one]
4 | 3 to 30 | COc1nc(N2CCC3(Cc4ccc(F)cc4C3)C2=O)ccc1-c1cn[nH]c1 (single isomer, unassigned) [Example 18, 5-Fluoro-1′-(6-methoxy-5-(1H-pyrazol-4-yl)pyridin-2-yl)-1,3-dihydrospiro[indene-2,3′-pyrrolidin]-2′-one]
5 | 30 to 300 | CC(C)(O)COc1ccc2c(c1)NC1(CCN(c3ccc(-c4cn[nH]c4)cc3)C1=O)C2 (centres unmarked) [Example 36]
6 | 3 to 30 | O=C1N(c2ccc(-c3cn[nH]c3)cc2)CCC12Cc1ccc(F)cc1C2 (single isomer, unassigned) [Example 16, 1′-(4-(1H-Pyrazol-4-yl)phenyl)-5-fluoro-1,3-dihydrospiro[indene-2,3′-pyrrolidin]-2′-one]
7 | < 3 | NCC1CN(c2ccc(-c3cn[nH]c3)cc2)C(=O)C12Cc1ccccc1N2 (centres unmarked) [Example 53, 1′-(4-(1H-pyrazol-4-yl)phenyl)-4′-(aminomethyl)spiro[indoline-2,3′-pyrrolidin]-2′-one]
8 | 30 to 300 | COc1ccc2c(c1)CC1(CCN(c3ccc(-c4cn[nH]c4)cc3)C1=O)N2 (centres unmarked) [Example 12, 1′-(4-(1H-Pyrazol-4-yl)phenyl)-5-methoxyspiro[indoline-2,3′-pyrrolidin]-2′-one]
9 | 3 to 30 | COc1cc(N2CCC3(Cc4ccccc4C3)C2=O)ccc1-c1cn[nH]c1 [Example 35, 1′-(3-Methoxy-4-(1H-pyrazol-4-yl)phenyl)-1,3-dihydrospiro[indene-2,3′-pyrrolidin]-2′-one]
10 | 30 to 300 | COc1ccc2c(c1)CC1(CCN(c3ccc(-c4cn[nH]c4)cc3)C1=O)O2 (single isomer, unassigned) [Example 25, 1′-(4-(1H-Pyrazol-4-yl)phenyl)-5-methoxy-3H-spiro[benzofuran-2,3′-pyrrolidin]-2′-one]
11 | < 3 | O=C1N(c2ccc(-c3cn[nH]c3)cc2)CCC12Cc1ccc(O)cc1N2 (centres unmarked) [Example 37]
12 | 3 to 30 | COc1ccc2c(c1)NC1(CCN(c3ccc(-c4cn[nH]c4)cc3)C1=O)C2 (single isomer, unassigned) [Example 6, 1′-(4-(1H-Pyrazol-4-yl)phenyl)-6-methoxyspiro[indoline-2,3′-pyrrolidin]-2′-one]
13 | 3 to 30 | O=C1N(c2ccc(-c3ccnc4[nH]ccc34)cc2)CCC12Cc1ccccc1CN2 (centres unmarked) [Example 49, 1′-(4-(1H-pyrrolo[2,3-b]pyridin-4-yl)phenyl)-1,4-dihydro-2H-spiro[isoquinoline-3,3′-pyrrolidin]-2′-one]
14 | < 3 | COc1cc(F)c2c(c1)NC1(CCN(c3ccc(-c4cn[nH]c4)cc3)C1=O)C2 (single isomer, unassigned) [Example 40, 1′-(4-(1H-Pyrazol-4-yl)phenyl)-4-fluoro-6-methoxyspiro[indoline-2,3′-pyrrolidin]-2′-one]
15 | < 3 | O=C1N(c2ccc(-c3cn[nH]c3)cc2)CC(CO)[C@@]12Cc1ccccc1N2 (stereo partly drawn) [Example 54, (2S)-1′-(4-(1H-pyrazol-4-yl)phenyl)-4′-(hydroxymethyl)spiro[indoline-2,3′-pyrrolidin]-2′-one]
16 | < 3 | COc1ccc2c(c1)CC1(CCN(c3ccc(-c4cn[nH]c4)cc3)C1=O)O2 (centres unmarked) [Example 24, 1′-(4-(1H-Pyrazol-4-yl)phenyl)-5-methoxy-3H-spiro[benzofuran-2,3′-pyrrolidin]-2′-one]
17 | 30 to 300 | O=C1N(c2ccc(-c3cn[nH]c3)cc2)CCC12CCc1ccccc1O2 (centres unmarked) [Example 50, 1′-(4-(1H-pyrazol-4-yl)phenyl)spiro[chromane-2,3′-pyrrolidin]-2′-one]
18 | 3 to 30 | O=C1N(c2cnc(-c3cn[nH]c3)cn2)CCC12Cc1ccccc1N2 (centres unmarked) [Example 44, 1′-(5-(1H-Pyrazol-4-yl)pyrazin-2-yl)spiro[indoline-2,3′-pyrrolidin]-2′-one]
19 | < 3 | COc1ccc2c(c1)CC1(CCN(c3ccc(-c4cn[nH]c4)cc3)C1=O)O2 (single isomer, unassigned) [Example 26, 1′-(4-(1H-Pyrazol-4-yl)phenyl)-5-methoxy-3H-spiro[benzofuran-2,3′-pyrrolidin]-2′-one]
20 | 3 to 30 | O=C1N(c2ccc(-c3ccncc3)cc2)CCC12Cc1ccccc1O2 (centres unmarked) [Example 46, 1′-(4-(Pyridin-4-yl)phenyl)-3H-spiro[benzofuran-2,3′-pyrrolidin]-2′-one]
21 | 300 to 2000 | COc1cc(F)c2c(c1)NC1(CCN(c3ccc(-c4cn[nH]c4)cc3)C1=O)C2 (single isomer, unassigned) [Example 39, 1′-(4-(1H-Pyrazol-4-yl)phenyl)-4-fluoro-6-methoxyspiro[indoline-2,3′-pyrrolidin]-2′-one]
22 | 30 to 300 | COc1cc(N2CCC3(Cc4ccccc4N3)C2=O)ccc1-c1cn[nH]c1 (single isomer, unassigned) [Example 33, 1′-(3-Methoxy-4-(1H-pyrazol-4-yl)phenyl)spiro[indoline-2,3′-pyrrolidin]-2′-one]
23 | < 3 | O=C1N(c2ccc(-c3cn[nH]c3)cc2)CC(CO)C12Cc1ccccc1N2 (centres unmarked) [Example 52, 1′-(4-(1H-pyrazol-4-yl)phenyl)-4′-(hydroxymethyl)spiro[indoline-2,3′-pyrrolidin]-2′-one]
24 | < 3 | COc1ccc2c(c1)CC1(CCN(c3ccc(-c4cn[nH]c4)cc3)C1=O)C2 (single isomer, unassigned) [Example 22, 1′-(4-(1H-Pyrazol-4-yl)phenyl)-5-methoxy-1,3-dihydrospiro[indene-2,3′-pyrrolidin]-2′-one]
25 | 3 to 30 | O=C1N(c2ccc(-c3cn[nH]c3)cn2)CCC12Cc1ccccc1N2 (centres unmarked) [Example 41, 1′-(5-(1H-Pyrazol-4-yl)pyridin-2-yl)spiro[indoline-2,3′-pyrrolidin]-2′-one]
26 | 30 to 300 | COc1ccc2c(c1)N(C)C1(CCN(c3ccc(-c4cn[nH]c4)cc3)C1=O)C2 (centres unmarked) [Example 14, 1′-(4-(1H-Pyrazol-4-yl)phenyl)-6-methoxy-1-methylspiro[indoline-2,3′-pyrrolidin]-2′-one]
27 | < 3 | O=C1N(c2ccc(-c3cn[nH]c3)cc2)CCC12Cc1ccccc1O2 (single isomer, unassigned) [Example 31, 1′-(4-(1H-Pyrazol-4-yl)phenyl)-3H-spiro[benzofuran-2,3′-pyrrolidin]-2′-one]
28 | < 3 | O=C1N(c2ccc(-c3cn[nH]c3)cc2)CCC12CCc1ccccc1N2 (centres unmarked) [Example 47, 1-(4-(1H-pyrazol-4-yl)phenyl)-3′,4′-dihydro-1 ^1H-spiro[pyrrolidine-3,2′-quinolin]-2-one]
29 | 30 to 300 | O=C1N(c2ccc(-c3cn[nH]c3)cc2)CC(CO)[C@]12Cc1ccccc1N2 (stereo partly drawn) [Example 55, (2R)-1′-(4-(1H-pyrazol-4-yl)phenyl)-4′-(hydroxymethyl)spiro[indoline-2,3′-pyrrolidin]-2′-one]

— US10696674B2, “Spirolactams as inhibitors of ROCK” (BRISTOL-MYERS SQUIBB COMPANY, priority 2016, dated 2020)
